Laboratory results reported in patent publication US20120035201A1, “SPIROHETEROCYCLIC PYRROLIDINE DIONE DERIVATIVES USED AS PESTICIDES” (SYNGENTA CROP PROTECTION LLC, priority 2009, published 2012).

What was measured:
[1] = system: Diabrotica balteata (corn root worm); test: Example B5: activity against Diabrotica balteata, larvicide on artificial diet in microtiter plate; type: in vivo; settings: 120 h, L2 larvae, 5 days, read-out: activity (larval mortality, antifeedant, growth regulation)
Description: Activity Against Diabrotica balteata (Corn Root Worm)
(Larvicide, Feeding/Residual Contact Activity, Preventive)
24-well microtiter plate (MTP) with artificial diet is treated with test solutions by pipetting. After drying, the MTP's are infested with larvae (L2)(6-10 per well). After an incubation period of 5 days, samples are checked for larval mortality, antifeedant and growth regulation.

[2] = system: Aphis gossypii (cotton aphid); test: Example B11: activity against Aphis gossypii, pea seedling roots in test solution (systemic/feeding); type: in vivo; settings: 144 h, roots of infested pea seedlings in test solution, 6 days
Text: Activity Against Aphis gossypii (Cotton Aphid)
(§1) (Mixed Population, Systemic/Feeding)
6 days later, samples are checked for mortality. In this test, compounds listed in Table A above show good activity.

[3] = system: Thrips tabaci (onion thrips); test: Example B4: activity against Thrips tabaci, sprayed sunflower leaf discs (feeding/residual contact, preventive); settings: foliar, 144 h, read-out: activity (mortality)
[4] = system: Tetranychus urticae (two-spotted spider mite); test: Example B3: activity against Tetranychus urticae, sprayed bean leaf discs (feeding/residual contact, preventive); type: in vivo; settings: foliar, 192 h, mixed population, 8 days, read-out: activity (egg, larval and adult mortality)
Text: Activity Against Tetranychus urticae (Two-Spotted Spider Mite)
(Mixed Population, Feeding/Residual Contact Activity, Preventive)
Bean leaf discs on agar in 24-well microtiter plates are sprayed with test solutions. […] 8 days later, discs are checked for egg mortality, larval mortality, and adult mortality. In this test, compounds listed in the Table A above show good activity. In particular compounds A1, A4, A5, A7, A8, A9, A10, A11, A12, A13 and A14 show an activity of over 80% at a concentration of 400 ppm.

[5] = system: Myzus persicae (green peach aphid); test: Example B1: activity against Myzus persicae, sprayed sunflower leaf discs (feeding/residual contact, preventive); settings: foliar, 144 h, read-out: activity (mortality)
[6] = system: Nilaparvata lugens (brown rice planthopper); test: Example B8: activity against Nilaparvata lugens, larvicide on rice seedlings (feeding/contact); type: in vivo; settings: sprayed rice seedlings, N3 nymphs, 6-12 days, read-out: activity (mortality, growth regulation, effects on F1 generation)
Description: Activity Against Nilaparvata lugens (Brown Rice Planthopper)
(Larvicide, Feeding/Contact)
Rice seedlings are treated with the diluted test solutions in a spray chamber. After drying, they are infested with 20 N3 nymphs (2 replicates). 6-12 days after the treatment samples are checked for mortality, growth regulation, and effects on the F1 generation. In this test, compounds listed in the Table A above show good activity. For example compounds A1, A2, A4, A7, A8, A9, A13 and A14 show an activity of over 80% at a concentration of 400 ppm.

[7] = system: cowpea aphid (Aphis craccivora); test: Example B13: insecticide seed treatment of sugarbeet seeds, infestation with cowpea aphid; type: in vivo; settings: 0.1 mg a.i./seed, infested after 14 days, counted 7 days later
Description: Insecticide Seed Treatment
Sugarbeet seeds are treated with test compounds at various rates (mg a.i./seed). The seeds are sown into pots filled with soil. After placing the seeds on the soil surface they are further covered with soil. Before and during the bioassays, the plants are grown under optimal greenhouse conditions. After 14 days, the plants are infested with cowpea aphid (Aphis craccivora) by placing one infested pea seedling containing approximately 150 aphids of a population of mixed developmental stages onto each plant. Seven days after infestation, the number of aphids is counted per plant. Each treatment group is replicated 10 times. Each replicate contains 1 plant.

[8] = system: Aonidiella Aurantii (red scale); test: Example B10: activity against Aonidiella aurantii, dipped potato tubers; type: in vivo; settings: 200 ppm, 6-8 weeks
Text: Activity Against Aonidiella Aurantii (Red Scale)
Treatment of potato tubers by dipping the in the test solution. One day later, tubers are infested with about 50 crawlers. 6-8 weeks after application samples are checked for the number of crawlers of the next generation (compared to the non treated samples). In this test, compounds listed in the Table A above show good activity.

[9] = system: Bemisia tabaci (tobacco white fly); test: Example B7: activity against Bemisia tabaci, larvicide on bean plants (contact/feeding); type: in vivo; settings: 200 ppm; bean plants with N-2 nymphs sprayed, three weeks
Description: Activity Against Bemisia tabaci (Tobacco White Fly)
(Larvicide, Contact/Feeding)
Bean plants are infested with 20-30 adults that were removed after a 4 day egg-laying period. After another 7 days, bean plants with hatched nymphs (N−2) are treated (2 replicates) with the test solutions in a spray chamber. Three weeks later, samples are checked for number of emerged adults. Efficacy was calculeted by comparing number of emerged adults in treated and non treated samples.

[10] = system: Myzus persicae (green peach aphid); test: Example B2: activity against Myzus persicae, pea seedling roots in test solution (systemic/feeding, curative); settings: 144 h, read-out: activity (mortality)
[11] = system: Myzus persicae (green peach aphid); test: Example B12: activity against Myzus persicae on sprayed pepper plants (feeding/residual contact); type: in vivo; settings: 144 h, 6 days
pepper plants = test: Example B12: plant damage evaluation (phytotoxicity) on sprayed pepper plants; settings: in vivo, 6 days, 200 ppm
[12] = system: Aphis Craccivora (cowpea aphid); test: Example B9: translaminar activity against Aphis craccivora on French bean leaves; type: in vivo; settings: 120 h, upper leaf side painted, aphids on lower side, 5 days
Description: Translaminar Activity Against Aphis Craccivora (Cowpea Aphid)
French bean leaves (Phaseolus vulgaris) are infested with about 20 mixed age individuals on the lower leaf side using clip cages. 1 day after the infestation, the upper side of the leaves is treated with the test solution by painting. 5 days later, samples are checked for mortality.

[13] = system: Aphis Craccivora (cowpea aphid); test: Example B15: activity against Aphis craccivora, pea seedling roots in test solution (systemic/feeding); type: in vivo; settings: 144 h, roots of infested pea seedlings in test solution, 6 days
Text: Activity Against Aphis Craccivora (Cowpea Aphid)
as §1
6 days later, samples are checked for mortality. In this test, compounds listed in Table A above show good activity. For example compounds A8, A9, A13 and A14 show an activity of over 80% at a concentration of 25 ppm.

With `CON1CCC2(CC1)NC(=O)C(Cl)(c1cc(C)ccc1C)C2=O` (stereo not drawn) [A1, 3-chloro-3-(2,5-dimethyl-phenyl)-8-methoxy-1,8-diaza-spiro[4.5]decane-2,4-dione] the mortality at 400 ppm [1] was over 80%, the mortality at 25 ppm [2] was over 80% and the mortality at 400 ppm [3] was over 80%. For the same molecule, the mortality at 400 ppm [4] was over 80%, the mortality at 400 ppm [5] was over 80% and the mortality at 400 ppm [6] was over 80%. The “efficacy in the reduction of aphids compared to untreated control plants” value [7] was “over 80%”, the “activity (number of crawlers of the next generation vs non treated)” value [8] was “over 80%” and the “activity (efficacy, number of emerged adults vs non treated)” value [9] was “over 80%”. The mortality at 400 ppm [10] was over 80%.
For `CON1CCC2(CC1)NC(=O)C(F)(c1cc(C)ccc1C)C2=O` (stereo not drawn) [A2, 3-(2,5-dimethyl-phenyl)-3-fluoro-8-methoxy-1,8-diaza-spiro[4.5]decane-2,4-dione], the mortality at 400 ppm [3] was over 80%, the mortality at 400 ppm [5] was over 80% and the mortality at 400 ppm [6] was over 80%.
`CON1CCC2(CC1)NC(=O)C(Cl)(c1ccc(Cl)cc1Cl)C2=O` (stereo not drawn) [A3] showed a mortality at 400 ppm [5] of over 80% and a mortality at 400 ppm [10] of over 80%.
In the case of `CON1CCC2(CC1)NC(=O)C(Cl)(c1c(C)cc(Cl)cc1C)C2=O` (stereo not drawn) [A5], the mortality at 400 ppm [3] is reported as over 80%, the mortality at 200 ppm [11] is reported as at least 80% and the mortality at 400 ppm [4] is reported as over 80%. For the same molecule, the mortality at 400 ppm [5] was over 80%, the “damage to pepper plants (phytotoxicity, 0-100% rating scale)” value (pepper plants) was at most 10% and the mortality at 400 ppm [10] was over 80%.
With `CON1CCC2(CC1)NC(=O)C(Cl)(c1c(C)cc(Br)cc1C)C2=O` (stereo not drawn) [A6] the mortality at 400 ppm [5] was over 80%.
For `CON1CCC2(CC1)NC(=O)C(Cl)(c1c(C)cc(Br)cc1Cl)C2=O` (stereo not drawn) [A7, 3-(4-bromo-2-chloro-6-methyl-phenyl)-3-chloro-8-methoxy-1,8-diaza-spiro[4.5]decane-2,4-dione], the mortality at 400 ppm [3] was over 80%, the mortality at 200 ppm [11] was at least 80% and the mortality at 400 ppm [4] was over 80%. For the same molecule, the mortality at 400 ppm [5] was over 80%, the mortality at 400 ppm [6] was over 80% and the “damage to pepper plants (phytotoxicity, 0-100% rating scale)” value (pepper plants) was at most 10%. The mortality at 400 ppm [12] was over 80% and the mortality at 400 ppm [10] was over 80%.
In the case of `CON1CCC2(CC1)NC(=O)C(Cl)(c1c(C)cccc1C)C2=O` (stereo not drawn) [A8], the mortality at 400 ppm [3] is reported as over 80%, the mortality at 25 ppm [13] is reported as over 80% and the mortality at 200 ppm [11] is reported as at least 80%. It also gave a mortality at 400 ppm [4] of over 80%, a mortality at 400 ppm [5] of over 80% and a mortality at 400 ppm [6] of over 80%. The “damage to pepper plants (phytotoxicity, 0-100% rating scale)” value (pepper plants) was at most 10%, the mortality at 400 ppm [12] was over 80% and the mortality at 400 ppm [10] was over 80%.
Molecule `CON1CCC2(CC1)NC(=O)C(Cl)(c1c(C)cc(C)cc1Cl)C2=O` (stereo not drawn) [A9] has a mortality at 400 ppm [3] of over 80%, a mortality at 25 ppm [13] of over 80% and a mortality at 400 ppm [4] of over 80%. The mortality at 400 ppm [5] was over 80%, the mortality at 400 ppm [6] was over 80% and the mortality at 400 ppm [12] was over 80%. For the same molecule, the mortality at 400 ppm [10] was over 80%.
`CON1CCC2(CC1)NC(=O)C(Cl)(c1c(C)ccc(Cl)c1C)C2=O` (stereo not drawn) [A10] showed a mortality at 400 ppm [3] of over 80%, a mortality at 400 ppm [4] of over 80% and a mortality at 400 ppm [5] of over 80%.
For `CON1CCC2(CC1)NC(=O)C(Cl)(c1cc(C)c(Cl)cc1C)C2=O` (stereo not drawn) [A11], the mortality at 400 ppm [1] was over 80%, the mortality at 400 ppm [3] was over 80% and the mortality at 400 ppm [4] was over 80%. It also gave a mortality at 400 ppm [5] of over 80%.
Molecule `CON1CCC2(CC1)NC(=O)C(Cl)(c1cc(C)c(C)cc1Cl)C2=O` (stereo not drawn) [A12] has a mortality at 400 ppm [1] of over 80%, a mortality at 400 ppm [3] of over 80% and a mortality at 400 ppm [4] of over 80%. For the same molecule, the mortality at 400 ppm [5] was over 80% and the mortality at 400 ppm [10] was over 80%.
Work on `CON1CCC2(CC1)NC(=O)C(Cl)(c1cc(C)c(C)cc1C)C2=O` (stereo not drawn) [A13] yielded a mortality at 400 ppm [1] of over 80%, a mortality at 400 ppm [3] of over 80% and a mortality at 25 ppm [13] of over 80%. It also gave a mortality at 200 ppm [11] of at least 80%, a mortality at 400 ppm [4] of over 80% and a mortality at 400 ppm [5] of over 80%. The mortality at 400 ppm [6] was over 80%, the “damage to pepper plants (phytotoxicity, 0-100% rating scale)” value (pepper plants) was at most 10% and the mortality at 400 ppm [12] was over 80%. For the same molecule, the mortality at 400 ppm [10] was over 80%.
Molecule `CON1CCC2(CC1)NC(=O)C(Cl)(c1c(C)cc(C)cc1C)C2=O` (stereo not drawn) [A14] has a mortality at 400 ppm [3] of over 80%, a mortality at 25 ppm [13] of over 80% and a mortality at 400 ppm [4] of over 80%. It also gave a mortality at 400 ppm [5] of over 80%, a mortality at 400 ppm [6] of over 80% and a mortality at 400 ppm [12] of over 80%. For the same molecule, the mortality at 400 ppm [10] was over 80%.
For `CON1CCC2(CC1)NC(=O)C(Cl)(c1cc(Br)c(C)cc1C)C2=O` (stereo not drawn) [A15], the mortality at 400 ppm [3] was over 80%, the mortality at 400 ppm [5] was over 80% and the mortality at 400 ppm [10] was over 80%.
For `CON1CCC2(CC1)NC(=O)C(c1c(C)cc(C)cc1C)([N+](=O)[O-])C2=O` (stereo not drawn) [A16, 8-methoxy-3-nitro-3-(2,4,6-trimethyl-phenyl)-1,8-diaza-spiro[4.5]decane-2,4-dione], the melting point was 136 °C (dec.).
Molecule `CON1CCC2(CC1)NC(=O)C(Cl)(c1c(Br)cc(C)cc1Br)C2=O` (stereo not drawn) [A18] has a mortality at 400 ppm [5] of over 80% and a mortality at 400 ppm [10] of over 80%.
